Data as given in article PMC5563081, “Modulating Protein-Protein Interactions of the Mitotic Polo-like Kinases to Target Mutant KRAS” (Cell Chemical Biology, 2017).

Assays:
[1] = target: T1, NanoLuc-PLK2 fusion protein (Homo sapiens, UniProt Q9NYY3); test: NanoLuc thermal shift assay; type: cell-based; conditions: compound at 100 μM
T1 construct: NanoLuc fused to the N-termini of full-length human PLK1, PLK2, PLK3, PLK4 or p38α MAPK; expressed in transfected cells; host or cells: HeLa, transient, digitonin-permeabilised
T1 sequence (Q9NYY3 whole entry, the tested form may be a part): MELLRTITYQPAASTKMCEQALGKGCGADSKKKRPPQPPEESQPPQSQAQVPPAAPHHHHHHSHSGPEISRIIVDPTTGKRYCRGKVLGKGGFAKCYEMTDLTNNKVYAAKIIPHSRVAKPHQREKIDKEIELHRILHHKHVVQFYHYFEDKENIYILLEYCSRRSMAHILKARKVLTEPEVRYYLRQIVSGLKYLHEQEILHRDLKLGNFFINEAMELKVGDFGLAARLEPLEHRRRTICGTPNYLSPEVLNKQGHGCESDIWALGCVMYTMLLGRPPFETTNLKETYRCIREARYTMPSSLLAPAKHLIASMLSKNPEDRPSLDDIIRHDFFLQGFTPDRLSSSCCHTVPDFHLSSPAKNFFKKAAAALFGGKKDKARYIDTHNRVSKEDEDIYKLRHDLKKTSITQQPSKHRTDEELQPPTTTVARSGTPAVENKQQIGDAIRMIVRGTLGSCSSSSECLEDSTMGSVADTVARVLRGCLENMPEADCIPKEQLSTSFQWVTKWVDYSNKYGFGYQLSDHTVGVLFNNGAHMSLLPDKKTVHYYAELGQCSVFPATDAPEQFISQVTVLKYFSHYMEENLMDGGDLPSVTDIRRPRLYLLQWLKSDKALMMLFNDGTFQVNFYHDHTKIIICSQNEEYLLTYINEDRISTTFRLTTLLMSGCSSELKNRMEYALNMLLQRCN
Experimental: (§1) HeLa cells were transfected with plasmids encoding NanoLuc fused to the N-termini of full-length human PLK1, PLK2, PLK3, PLK4 or p38α MAPK. Twenty-four h after transfection, the thermal stability of the fusion proteins was tested using a modified version of the assay protocol supplied by Promega. Briefly, cells were harvested by tyrpsinisation and centrifugation, counted, and resuspended to 200,000 cells/ml in 3mls of serum-free OptiMEM media. Cells were then permeabilised using with 50ug/ml digitonin in DMSO for 5 min and incubated with test compounds at 100uM, plus protease inhibitor cocktail (Promega G6521), in a final concentration of 5% DMSO for 1 h at 37°C. After incubation, 100 μl/well of cells were aliquoted into a 96-well, thin-walled PCR plate and then heated for 3 minutes using a pre-warmed MJ Tetrad DNA Engine set to run a temperature gradient of 42 to 66°C. The plates were then cooled to room temperature for 10 min, and then 80μl of each sample was transferred to a white-walled 96-well Nunc plate before NanoBRET™ NanoGlo Substrate diluted in Opti-MEM was added. NanoLuc enzyme activity was read out within 10 min using a BMG Clariostar plate reader.

[2] = target: T2, NanoLuc-PLK3 fusion protein (Homo sapiens, UniProt Q9H4B4); test: NanoLuc thermal shift assay; type: cell-based; conditions: compound at 100 μM
T2 construct: NanoLuc fused to the N-termini of full-length human PLK1, PLK2, PLK3, PLK4 or p38α MAPK; expressed in transfected cells; host or cells: HeLa, transient, digitonin-permeabilised
T2 sequence (Q9H4B4 whole entry, the tested form may be a part): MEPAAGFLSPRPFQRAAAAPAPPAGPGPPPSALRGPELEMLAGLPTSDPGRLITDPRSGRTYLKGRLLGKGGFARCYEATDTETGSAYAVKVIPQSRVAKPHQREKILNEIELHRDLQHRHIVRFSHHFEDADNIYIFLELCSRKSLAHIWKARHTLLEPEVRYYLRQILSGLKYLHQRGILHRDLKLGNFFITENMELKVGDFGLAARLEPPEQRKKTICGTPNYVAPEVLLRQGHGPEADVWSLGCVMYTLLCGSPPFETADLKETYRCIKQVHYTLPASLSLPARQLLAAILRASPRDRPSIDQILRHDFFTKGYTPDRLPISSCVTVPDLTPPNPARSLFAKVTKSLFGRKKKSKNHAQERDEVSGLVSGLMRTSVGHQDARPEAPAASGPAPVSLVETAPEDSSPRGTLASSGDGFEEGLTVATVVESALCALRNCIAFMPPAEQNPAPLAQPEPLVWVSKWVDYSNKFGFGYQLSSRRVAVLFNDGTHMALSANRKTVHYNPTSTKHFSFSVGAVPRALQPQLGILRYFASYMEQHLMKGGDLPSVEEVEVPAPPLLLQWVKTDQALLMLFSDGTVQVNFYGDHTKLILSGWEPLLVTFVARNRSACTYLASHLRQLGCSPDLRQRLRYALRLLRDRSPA
Experimental: as §1

human cell lines = test: Dose-dependent mitotic arrest (Figure 1F); type: cell-based
Experimental: Cells were plated at 10 000/well in 96-well plates and incubated overnight. The following day compound stocks in DMSO were diluted in medium then added to cells with a maximum final DMSO concentration on cells of 0.2%. Cells were incubated with compound for 24 h then fixed in 3.7% formaldeyde. Cells were permeabilised with 0.1% Triton X-100 then incubated with anti-phospho-histone H3 (Ser10) antibody (Abcam ab5176). The cells were washed with PBS then incubated with AlexaFluor 488 labelled goat anti-rabbit IgG (Invitrogen A11034) in the presence of 4ug/ml Hoechst 33342 (Invitrogen H3570). Cells were washed in PBS then imaged on an Arrayscan VTi HCS instrument (Thermo Fisher) using the Target Activation V4 Bioapplication. A user-defined threshold was applied to identify mitotic cells based on the intensity of phospho-histone H3 staining.

U2OS cells = test: Quantification of mitotic phenotypes by immunofluorescence; type: cell-based, human; conditions: 12.5 μM
Experimental: Cells were plated on glass coverslips and incubated overnight. Cells were treated with compound diluted in medium for 24hrs. Medium was then removed and cells fixed in 20mM PIPES pH8, 20mM HEPES pH8, 5mM EGTA, 2mM MgCl, 0.2% Triton X-100 and 3.7% formaldehyde. Cells were washed in PBS containing 0.1% Tween-20 then incubated with anti-alpha tubulin antibody (Santa Cruz sc-32293) and anti-CREST antibody (Europa 90C-CS1058). Cells were washed then incubated with Alexa Fluor 568 labelled goat anti-mouse IgG (Invitrogen A11031) or Alexa Fluor 633 labelled goat anti-mouse IgG (Invitrogen A21052) and Alexa Fluor 488 goat anti-human IgG (Invitrogen A11013). Cells were washed and then mounted on glass slides in Vectashield mounting medium containing DAPI.

MEFs KRAS WT p53 MUT = test: Cell viability in MEFs, KRAS WT p53 MUT; type: cell-based; conditions: Mus musculus
Experimental: (§2) KrasWT mouse embryonic fibroblasts (MEFs) were derived from conditional LSL-Trp53^R172H/+ embryos. LSL-Trp53^R172H/+, LSL-Kras^G12D/+ ([Hingorani et al., 2005]) strains were interbred to obtain LSL-Kras^G12D/+, LSL-Trp53^R172H/+ Kras^G12D embryos for MEF preparation. Briefly, MEFs were derived from E13.5 embryos after decapitation and evisceration. Finely minced tissue was passed through a 16-G needle two or three times before dissociated cells were cultured in DMEM with 10% FBS. Cre-mediated recombination to activate the Kras^G12D allele was induced via addition of 500nM 4-OH Tamoxifen to the culture media overnight.

MEFs KRAS MUT p53 MUT = test: Cell viability in MEFs, KRAS MUT p53 MUT; type: cell-based; conditions: Mus musculus
Experimental: as §2

[3] = tested on: HCT116 BI 2536-Res. Clones; test: Viability of BI 2536-resistant HCT116 clones; type: cell-based, human
Experimental: Viability is represented as percentage survival normalised to DMSO control. […] PCR reactions were carried out using Amplitaq Gold polymerase (Applied Biosystems N8080241) with a 25-cycle programme. […] Prepared samples were submitted for next generation sequencing using MiSeq Nano run with Nextera XT library preparation. Sequencing and subsequent bioinformatics were performed by Cambridge Genomic Services (University Of Cambridge).

[4] = Stability in human hepatocytes; type: in vitro ADME
[5] = Pharmacokinetic study, oral administration in mice; type: in vivo, mouse
Experimental: Mice were dosed orally with 10mg/kg Poloppin-II, and blood samples were taken from 3 mice per time point, and frozen until all samples were available. Plasma was prepared from each sample and Poloppin-II levels analysed by a pre-established methodology (UHPLC-TOF MS using electrospray ionisation).

Row | SMILES | thermal stability of NanoLuc-PLK2 [1] | thermal stability of NanoLuc-PLK3 [2] | EC50 (human cell lines) [µM] | cells with normal metaphase chromosome alignment (U2OS cells) [%] | GI50 (MEFs KRAS WT p53 MUT; MEFs KRAS WT p53 MUT) [µM] | GI50 (MEFs KRAS WT p53 MUT; MEFs KRAS WT p53 MUT+4OHT) [µM] | GI50 (MEFs KRAS MUT p53 MUT; MEFs KRAS MUT p53 MUT) [µM] | GI50 (MEFs KRAS MUT p53 MUT; MEFs KRAS MUT p53 MUT+4OHT) [µM] | GI50 ([3]; BI2536-Res. (Mean), 72 h) | GI50 ([3]; Homo sapiens, HCT-116, 72 h) [µM] | half-life [4] [h] | hepatocyte CLint [4] [µL/min/1e6 cells] | bioavailability ([5]; mouse, plasma, 10 mg/kg oral) [%] | clearance ([5]; mouse, plasma, oral, 10 mg/kg, read-out: calculated clearance) [mL/min/kg] | Vd ([5]; mouse, plasma, oral, 10 mg/kg, read-out: volume of distribution) [L/kg] | half-life ([5]; mouse, plasma, per oral, 10 mg/kg) [h] | time for which plasma concentration >100 nM is maintained ([5]; single oral dose of 10 mg/kg) [h] | in vivo plasma concentration maintained ([5]; single oral dose of 10 mg/kg, for >24 hr) [nM]
1 | O=C(O)CCc1ccc(-c2ccc(Br)cc2)n1-c1ccccc1C(F)(F)F [Poloppin] | increases the thermal stability | increases the thermal stability | 29.9 ± 1.12 | < 5 | 51.1 ± 1.05 | 43.7 ± 1.09 | 49.5 ± 1.05 | 17.6 ± 1.22 | retain sensitivity | 7.7 |  |  |  |  |  |  |  | 
2 | CN(C)CCNC(=O)c1ccc(-c2ccc(-c3ccc(Cl)cc3)n2-c2ccccc2C(F)(F)F)cc1 [Poloppin-II] |  |  |  |  |  |  |  |  |  |  | 2.27 | 10 | > 90 | 17 | 23 | 15 | > 24 | > 100
